The text below walks through data of patent US12570618B2, “Compound, production method therefor, and pharmaceutical composition” (TOKYO UNIVERSITY OF SCIENCE FOUNDATION, priority 2021, dated 2026).

The term GI50 denotes the concentration that inhibits growth by half. As usually defined, the IC50 is the concentration that inhibits the measured activity by half.

The test system of assay [1] is MCF-7 (Breast adenocarcinoma cell line). Nature of the assay: cell proliferation inhibitory activity, WST-8 (Test Example 2). It counts as cell-based. To be noted: Homo sapiens, MCF7, 48 h, MCF-7, 2 days with compound. From the text:
(§1) Compounds RS1 to RS7 obtained in Synthesis Examples 1 to 7, and M-COPA synthesized in the same manner as in Synthesis Example 1 in Patent Document 1 were examined for cell proliferation inhibitory activity against human cultured cancer cells. The cancer cells used were eight human cancer cell lines (one skin cancer cell line, one ovarian cancer cell line, one prostate cancer cell line, two lung adenocarcinoma cell lines, one colorectal cancer cell line, two breast adenocarcinoma cell lines). The cancer cells of each type were seeded on a 96-well plate and cultured for 2 days, and cultured for 2 days with addition of serially diluted products of the compounds, and the cell proliferation was then measured by colorimetry with a water-soluble tetrazolium salt (WST-8). Thereafter, 50% cell proliferation inhibitory concentrations (GI50) were calculated from the cell proliferation curves.
(In general: Tetrazolium assays rely on reduction of a dye to a coloured formazan, in cell work by metabolically active cells.)

For assay [2], the system named is Hs925t (Skin cancer cell line). The description is as above. The class given is cell-based. To be noted: Homo sapiens, 48 h, 2 days with compound.
Description: as §1

Assay [3] deals with DLD-1 (Colorectal cancer cell line). The assay is described as above. The note with it: Homo sapiens, 48 h, DLD-1, 2 days with compound. The class given is cell-based.
Description: as §1

The subject of assay [4] is H2228 (Lung adenocarcinoma cell line). The assay is described as above. The class given is cell-based. To be noted: Homo sapiens, NCI-H2228, 48 h; H2228, 2 days with compound, WST-8, Table 2.
Description: as §1

For assay [5], the system named is SK-OV3 (Ovarian cancer cell line). The description is as above. The class given is cell-based. To be noted: Homo sapiens, SK-OV-3, 48 h, SK-OV3, 2 days with compound.
Description: as §1

Assay [6] concerns DU-145 (Prostate cancer cell line). The assay is described as above. The note with it: Homo sapiens, 48 h, DU-145, 2 days with compound. It counts as cell-based.
Description: as §1

In assay [7] the test system is H1650 (Lung adenocarcinoma cell line). The assay is described as above. It counts as cell-based. The note with it: Homo sapiens, NCI-H1650, 48 h; H1650, 2 days with compound, WST-8, Table 2.
Description: as §1

The subject of assay [8] is Hs578t (Breast adenocarcinoma cell line). The description is as above. The class given is cell-based. To be noted: Homo sapiens, Hs-578T, 48 h, 2 days with compound.
Description: as §1

Assay [9] deals with GIST-T1 cells. Nature of the assay: cell proliferation inhibitory activity, ATP production (Test Example 1). To be noted: for IC50: Homo sapiens, GISTT1, 48 h, GIST-T1 cells (KIT^Δ560-578, imatinib-sensitive), cultured 2 days with compound, ATP production, n=3; for inhibition of cell proliferation (in words): GIST-T1 cells, FIG. 1. The class given is cell-based, human. From the text: (§2) Compounds RS1, RS2, and RS5 obtained in Synthesis Examples 1, 2, and 5, and M-COPA synthesized in the same manner as in Synthesis Example 1 in Patent Document 1 were examined for cell proliferation inhibitory activity against human cultured cancer cells with KIT tyrosine kinase mutation. The human cultured cancer cells used were GIST-T1 cells (KIT^Δ560-578. imatinib-sensitive) and GIST-R9 cells (KIV^Δ560-578/D820V, imatinib-resistant) as gastrointestinal stromal tumor cell lines, and HMC-1.2 cells (KIT^V560G/D816V, imatinib-resistant) as a mast cell leukemia cell line. The cancer cells of each type were seeded on a 96-well plate and cultured overnight, and cultured for 2 days with addition of serially diluted products of the compounds, and the cell proliferation was then measured by quantifying the ATP production (n=3). FIG. 1 to FIG. 3 show the cell proliferation curves for the GIST-T1 cells, GIST-R9 cells, and HMC-1.2 cells.

Assay [10] deals with HMC-1.2 cells. The description is as above. The class given is cell-based, human. The note with it: for IC50: Homo sapiens, 48 h, HMC-1.2 cells (KIT^V560G/D816V, imatinib-resistant), cultured 2 days with compound, ATP production, n=3; for inhibition of cell proliferation (in words): HMC-1.2 cells, FIG. 3.
Description: as §2

The test system of assay [11] is GIST-R9 cells. The description is as above. The note with it: for IC50: Homo sapiens, 48 h, GIST-R9 cells (KIV^Δ560-578/D820V, imatinib-resistant), cultured 2 days with compound, ATP production, n=3; for inhibition of cell proliferation (in words): GIST-R9 cells, FIG. 2. The class given is cell-based, human.
Description: as §2

The subject of assay [12] is H2228 (Lung adenocarcinoma cell line). The assay is described as follows: cell proliferation inhibitory activity, WST-8 (Test Example 3). The class given is cell-based. The note with it: Homo sapiens, NCI-H2228, 48 h; H2228, 2 days with compound, WST-8, Table 3. How it is done: (§3) Compounds RS8 to RS10 obtained in Synthesis Examples 8 to 10 were examined for cell proliferation inhibitory activity against human cultured cancer cells. The cancer cells used were two human lung adenocarcinoma cell lines and one human lung squamous cell carcinoma cell line. The cancer cells of each type were seeded on a 96-well plate and cultured for 2 days, and cultured for 2 days with addition of serially diluted products of the compounds, and the cell proliferation was then measured by colorimetry with a water-soluble tetrazolium salt (WST-8). Thereafter, 50% cell proliferation inhibitory concentrations (GI50) were calculated from the cell proliferation curves.

In assay [13] the test system is H1650 (Lung adenocarcinoma cell line). Described as above. It counts as cell-based. To be noted: Homo sapiens, NCI-H1650, 48 h; H1650, 2 days with compound, WST-8, Table 3. How it is done:
as §3

Assay [14] relates to H226 (Lung squamous cell carcinoma cell line). Described as above. The class given is cell-based. To be noted: Homo sapiens, NCI-H226, 48 h; H226, 2 days with compound, WST-8, Table 3. How it is done:
as §3

Turning to `C/C(=C\C=C\[C@@H]1[C@H]2[C@H](C)[C@@H](O)[C@H](C)C[C@@H]2C=C[C@@H]1C)C(=O)NCc1cccnc1` [M-COPA, 2-methylcoprophilinamide, reference compound], the GI50 in assay [1] came out at 0.35 µM; in [2] it was 0.05 µM; in assay [3], 0.03 µM; in assay [4], 0.04 µM; in assay [5], 0.03 µM; in [6] it was 0.1 µM. In addition, the GI50 in [7] amounted to 0.08 µM; in assay [8], 0.04 µM. The IC50 in assay [9] was determined as 0.347 ± 0.021 µM; in assay [10] it was 0.086 ± 0.009 µM; in assay [11] it was 0.528 ± 0.059 µM.
Consider `C[C@@H]1[C@@H](O)[C@H](C)C[C@@H]2C=C[C@H](C)[C@H](/C=C/C=C(\Br)C(=O)NCc3cnco3)[C@@H]12` [RS1, (2Z,4E)-2-Bromo-5-((1′S,2′S,4′aR,6′R,7′S,8′S,8′aS)-7′-hydroxy-2′,6′,8′-trimethyl-1′,2′,4′a,5′,6′,7′,8′,8′a-octahydronaphthalen-1′-yl)-N-(oxazol-5″-ylmethyl)penta-2,4-dienamide], for which the GI50 in assay [1] is 0.03 µM; in assay [2] it was 0.001 µM; in assay [3] it was 0.003 µM; in assay [4], 0.01 µM; in assay [5], 0.005 µM; in [6] it was 0.04 µM. Moreover, the concentration for 50% growth inhibition (GI50) in assay [7] came out at 0.005 µM; in [8], 0.003 µM. Besides, the “inhibition of cell proliferation (in words)” value (“inhibition” below) in assay [9], in assay [10] and in assay [11] was “in a concentration-dependent manner” throughout. The figures for the IC50 in [9], in [10] and in assay [11] were 0.268 µM, 0.05 µM and 0.363 µM, respectively.
With `C[C@@H]1[C@@H](O)[C@H](C)C[C@@H]2C=C[C@H](C)[C@H](/C=C/C=C(\Br)C(=O)NCc3cncs3)[C@@H]12` [RS2, (2Z,4E)-2-Bromo-5-((1′S,2′S,4′aR,6′R,7′S,8′S,8′aS)-7′-hydroxy-2′,6′,8′-trimethyl-1′,2′,4′a,5′,6′,7′,8′,8′a-octahydronaphthalen-1′-yl)-N-(thiazol-5″-ylmethyl)penta-2,4-dienamide], the GI50 came out at 0.03 µM in [1]; 0.0003 µM in [2]; 0.001 µM in assay [3]; 0.04 µM in [4]; 0.003 µM in assay [5]; 0.01 µM in assay [6]. For the same compound, the GI50 in assay [7] and in assay [8] was 0.03 µM in each case. In addition, the “inhibition” value in assay [9], in [10] and in [11] was “in a concentration-dependent manner” each time. The IC50 is 0.128 µM in assay [9], 0.037 µM in [10] and 0.169 µM in assay [11].
Turning to `C[C@@H]1[C@@H](O)[C@H](C)C[C@@H]2C=C[C@H](C)[C@H](/C=C/C=C(\Br)C(=O)NCc3cccnc3)[C@@H]12` [RS5, (2Z,4E)-2-Bromo-5-((1′S,2′S,4′aR,6′R,7′S,8′S,8′aS)-7′-hydroxy-2′,6′,8′-trimethyl-1′,2′,4′a,5′,6′,7′,8′,8′a-octahydronaphthalen-1′-yl)-N-(pyridin-3″-ylmethyl)penta-2,4-dienamide], the 50% growth inhibitory concentration (GI50) in [1] was 0.08 µM; in assay [2], 0.0001 µM; in assay [3], 0.0003 µM; in [4] it was 0.03 µM; in assay [5], 0.001 µM; in [6], 0.01 µM. Moreover, the GI50 in [7] came to 0.05 µM; in assay [8], 0.03 µM. For the same compound, the “inhibition” value in [9], in assay [10] and in assay [11] was “in a concentration-dependent manner” each time. Moreover, the IC50 in assay [9] turned out to be 0.169 µM; in assay [10], 0.042 µM; in [11], 0.292 µM.
As for `C[C@@H]1[C@@H](O)[C@H](C)C[C@@H]2C=C[C@H](C)[C@H](/C=C/C=C(\Br)C(=O)NCc3ccccn3)[C@@H]12` [RS8, (2Z,4E)-2-Bromo-5-((1′S,2′S,4′aR,6′R,7′S,8′S,8′aS)-7′-hydroxy-2′,6′,8′-trimethyl-1′,2′,4′a,5′,6′,7′,8′,8′a-octahydronaphthalen-1′-yl)-N-(pyridin-2″-ylmethyl)penta-2,4-dienamide], the GI50 in assay [12] came to 0.3 µM; in assay [13], 0.3 µM; in assay [14], 0.04 µM.
On to `C[C@@H]1[C@@H](O)[C@H](C)C[C@@H]2C=C[C@H](C)[C@H](/C=C/C=C(\Br)C(=O)OCc3cccnc3)[C@@H]12` [RS9, Pyridin-3″-ylmethyl (2Z,4E)-2-bromo-5-((1′S,2′S,4′aR,6′R,7′S,8′S,8′aS)7′-hydroxy-2′,6′,8′-trimethyl-1′,2′,4′a,5′,6′,7′,8′,8′a-octahydronaphthalen-1′-yl)penta-2,4-dienoate], for which the GI50 in assay [12] was 0.4 µM; in assay [13], 0.2 µM; in assay [14] it was 0.04 µM.
Turning to `C[C@@H]1[C@@H](O)[C@H](C)C[C@@H]2C=C[C@H](C)[C@H](/C=C/C=C(\Br)C(=O)OCc3ccccn3)[C@@H]12` [RS10, Pyridin-2″-ylmethyl (2Z,4E)-2-bromo-5-((1′S,2′S,4′aR,6′R,7′S,8′S,8′aS)-7′-hydroxy-2′,6′,8′-trimethyl-1′,2′,4′a,5′,6′,7′,8′,8′a-octahydronaphthalen-1′-yl)penta-2,4-dienoate], the GI50 in assay [12] is 0.7 µM; in assay [13], 0.5 µM; in assay [14] it was 0.3 µM.
